{"source": "patent US7105654B1", "about": "“Ethylene receptor gene from Glycine max and its use” (Monsanto Technology LLC, priority 2002, dated 2006)", "tested_on": "soybean (Glycine max) seedlings", "test": "ACC insensitivity assay (hypocotyl length of dark-grown seedlings)", "format": "in vivo", "conditions": "nontransformed soybean variety Asgrow A4922, grown in the dark; without ACC greater than 70 millimeters", "description": "FIG. 4. R1 seeds from pMON47103, pMON47104, and pMON47108 were screened by an ACC insensitivity assay. […] Hypocotyl length was measured after six days and the average value presented.\nSeeds were germinated in growth pouches (Mega International, Minneapolis, Minn.) containing 25 milliliters of 25 micromolar 1-aminocyclopropane-1-carboxylic acid (ACC) (Sigma Chemical Company) or in tissue culture boxes containing agar, water, and 20 micromolar ACC. Seedlings were kept in the dark for seven days. Growth of hypocotyl and root were scored in comparison to seedlings grown in water with all other conditions identical. An alternative protocol was used to measure growth in a solid matrix. Vermiculite was placed in a 4″×4″ plastic pot to ½″ below the rim. Twelve seeds were placed in each pot beneath the surface of the vermiculite. A solution of 500 micromolar ACC in distilled water was used to saturate the vermiculite. The pots were placed in a tray with additional solution to ensure a supply during incubation. The plants were incubated in a dark ventilated cabinet at room temperature for six days. On the sixth day, seedlings were removed from the vermiculite and rinsed. The hypocotyl length (from first lateral root to the bend of the apical hook) was measured and compared against wild type plants grown in the same environmental condition. […]"}
{"smiles": "NC1(C(=O)O)CC1", "note": "[ACC, 1-aminocyclopropane-1-carboxylic acid]", "values": [{"measurement": "average height of seedlings in response to applied ACC", "value": "less than 20 millimeters"}]}
